Patent publication US8921362B2, “6,7-dialkoxy quinazoline derivatives and methods of treating drug resistant and other tumors” (Natco Pharma Limited, priority 2008, dated 2014)

What was measured:
Assay in all cases: KinomeScan
Format in all cases: binding
Details in all cases: read-out: % Ctrl @ 10000 nM
[1] = molecular target: T1, FLT3(K663Q) (Homo sapiens, UniProt P36888, K663Q)
T1 construct: host or cells: T7 phage in E. coli host derived from BL21
Protocol: (§1) Kinase assays: Assays were performed as described in Fabian et al. (2005) Nature Biotechnology, vol. 23, p. 329. Kinase-tagged T7 phage strains were grown in parallel in 24 or 96-well blocks in an E. coli host derived from the BL21 strain. E. coli were grown to log-phase and infected with T7 phage from a frozen stock (multiplicity of infection ˜0.1) and incubated with shaking at 32° C. until lysis (−90 minutes). The lysates were centrifuged and filtered to remove cell debris. […] The liganded beads were blocked with excess biotin and washed with blocking buffer (SeaBlock (Pierce), 1% BSA, 0.05% Tween 20, 1 mM DTT) to remove unbound ligand and to reduce non-specific phage binding.
(§2) Test compounds were prepared as 40× stocks in DMSO and diluted into the aqueous environment. 2.5% DMSO was added to control assays lacking a test compound. All reactions were performed in polystyrene 96-well plates that had been pretreated with blocking buffer in a final volume of 0.04 ml. […] The phage titer in the eluates was measured by quantitative PCR.

[2] = molecular target: T2, FGFR4 (Homo sapiens, UniProt P22455)
T2 construct: host or cells: T7 phage in E. coli host derived from BL21
T2 sequence (P22455 22-802): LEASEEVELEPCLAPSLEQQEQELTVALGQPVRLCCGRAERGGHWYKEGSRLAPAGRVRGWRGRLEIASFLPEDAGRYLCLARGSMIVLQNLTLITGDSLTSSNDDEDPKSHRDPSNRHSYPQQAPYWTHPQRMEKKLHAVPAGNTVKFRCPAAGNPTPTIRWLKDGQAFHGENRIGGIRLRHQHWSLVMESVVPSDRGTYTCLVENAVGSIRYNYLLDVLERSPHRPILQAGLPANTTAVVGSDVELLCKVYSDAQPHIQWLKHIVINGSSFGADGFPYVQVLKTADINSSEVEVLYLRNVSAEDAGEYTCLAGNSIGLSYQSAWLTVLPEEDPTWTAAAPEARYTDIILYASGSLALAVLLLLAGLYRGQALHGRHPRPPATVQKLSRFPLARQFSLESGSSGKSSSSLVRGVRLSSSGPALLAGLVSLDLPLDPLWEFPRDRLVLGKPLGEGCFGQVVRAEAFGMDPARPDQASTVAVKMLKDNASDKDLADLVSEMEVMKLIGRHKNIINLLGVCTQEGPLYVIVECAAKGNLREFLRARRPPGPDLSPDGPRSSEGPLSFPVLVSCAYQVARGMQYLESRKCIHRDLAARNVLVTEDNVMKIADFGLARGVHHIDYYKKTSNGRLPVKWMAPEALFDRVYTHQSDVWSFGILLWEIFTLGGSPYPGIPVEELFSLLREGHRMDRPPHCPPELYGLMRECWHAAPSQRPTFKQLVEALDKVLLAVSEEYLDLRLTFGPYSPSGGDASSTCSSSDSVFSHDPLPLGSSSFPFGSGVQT
Protocol: as §1, §2

[3] = molecular target: T3, HIPK1 (Homo sapiens, UniProt Q86Z02)
T3 construct: host or cells: T7 phage in E. coli host derived from BL21
Protocol: as §1, §2

[4] = molecular target: T4, PRKG2 (Homo sapiens, UniProt Q13237)
T4 construct: host or cells: T7 phage in E. coli host derived from BL21
Protocol: as §1, §2

[5] = molecular target: T5, CDK9 (Homo sapiens, UniProt P50750)
T5 construct: host or cells: T7 phage in E. coli host derived from BL21
Protocol: as §1, §2

[6] = molecular target: T6, PRKG1 (Homo sapiens, UniProt Q13976)
T6 construct: host or cells: T7 phage in E. coli host derived from BL21
Protocol: as §1, §2

[7] = molecular target: T7, p38-beta (Homo sapiens, UniProt Q15759)
T7 construct: host or cells: E. coli host derived from BL21, infected with T7 phage
T7 sequence (Q15759 whole entry): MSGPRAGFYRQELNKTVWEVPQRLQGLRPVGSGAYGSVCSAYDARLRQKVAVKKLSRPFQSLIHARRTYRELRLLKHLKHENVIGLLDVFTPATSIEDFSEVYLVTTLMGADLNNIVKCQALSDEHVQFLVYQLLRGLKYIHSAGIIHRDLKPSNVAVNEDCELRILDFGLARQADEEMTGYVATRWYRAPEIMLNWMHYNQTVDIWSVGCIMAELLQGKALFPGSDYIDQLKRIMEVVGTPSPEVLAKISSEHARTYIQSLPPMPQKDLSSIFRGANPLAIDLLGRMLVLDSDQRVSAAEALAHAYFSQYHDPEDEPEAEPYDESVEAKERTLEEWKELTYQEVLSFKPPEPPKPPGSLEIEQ
Protocol: as §1, §2

[8] = molecular target: T8, AMPK-alpha1 (Homo sapiens, UniProt Q13131)
T8 construct: host or cells: E. coli (BL21-derived), T7 phage lysate
Protocol: as §1, §2

[9] = molecular target: T9, JAK3(JH1domain- catalytic) (Homo sapiens, UniProt P52333)
T9 construct: JAK3(JH1domain- catalytic); host or cells: T7 phage grown in E. coli host derived from BL21
Protocol: as §1, §2

[10] = molecular target: T10, PDPK1 (Homo sapiens, UniProt O15530)
T10 construct: host or cells: E. coli host derived from BL21, infected with T7 phage
Protocol: as §1, §2

[11] = molecular target: T11, CAMK1D (Homo sapiens, UniProt Q8IU85)
T11 construct: host or cells: E. coli host derived from BL21
Protocol: as §1, §2

[12] = molecular target: T12, EGFR(E746-A750del) (Homo sapiens, UniProt P00533, DEL746-750)
T12 construct: purchased Ambit Biosciences Corp (KinomeScan); host or cells: T7 phage in E. coli host derived from BL21
Protocol: as §1, §2

[13] = molecular target: T13, LATS2 (Homo sapiens, UniProt Q9NRM7)
T13 construct: host or cells: T7 phage grown in E. coli host derived from BL21
T13 sequence (Q9NRM7 whole entry): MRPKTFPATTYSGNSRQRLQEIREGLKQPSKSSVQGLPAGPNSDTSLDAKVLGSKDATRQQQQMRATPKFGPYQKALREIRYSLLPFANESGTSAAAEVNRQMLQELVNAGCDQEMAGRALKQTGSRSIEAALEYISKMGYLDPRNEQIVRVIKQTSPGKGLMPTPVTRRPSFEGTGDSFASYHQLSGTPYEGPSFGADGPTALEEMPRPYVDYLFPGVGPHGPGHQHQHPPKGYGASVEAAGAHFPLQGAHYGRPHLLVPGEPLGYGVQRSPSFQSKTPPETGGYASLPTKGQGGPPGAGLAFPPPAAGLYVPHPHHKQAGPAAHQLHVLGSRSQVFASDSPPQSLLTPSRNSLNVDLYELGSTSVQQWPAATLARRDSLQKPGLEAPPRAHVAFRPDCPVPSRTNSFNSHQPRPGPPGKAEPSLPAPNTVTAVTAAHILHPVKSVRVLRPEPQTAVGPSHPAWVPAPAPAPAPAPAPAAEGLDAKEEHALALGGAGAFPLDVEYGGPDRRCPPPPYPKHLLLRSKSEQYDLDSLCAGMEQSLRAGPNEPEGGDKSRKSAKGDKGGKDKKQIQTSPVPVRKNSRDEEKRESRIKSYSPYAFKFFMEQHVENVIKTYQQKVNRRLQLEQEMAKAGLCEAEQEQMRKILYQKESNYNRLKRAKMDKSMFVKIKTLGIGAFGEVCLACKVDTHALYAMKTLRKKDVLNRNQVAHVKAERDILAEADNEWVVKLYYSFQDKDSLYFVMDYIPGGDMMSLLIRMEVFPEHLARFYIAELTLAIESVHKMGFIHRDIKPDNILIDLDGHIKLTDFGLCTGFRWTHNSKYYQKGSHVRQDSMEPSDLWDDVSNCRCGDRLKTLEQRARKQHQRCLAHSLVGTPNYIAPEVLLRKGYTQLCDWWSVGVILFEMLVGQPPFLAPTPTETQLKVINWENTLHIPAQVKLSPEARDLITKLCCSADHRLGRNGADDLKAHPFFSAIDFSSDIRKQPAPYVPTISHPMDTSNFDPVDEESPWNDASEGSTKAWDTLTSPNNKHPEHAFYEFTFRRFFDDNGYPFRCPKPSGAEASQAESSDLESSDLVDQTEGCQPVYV
Protocol: as §1, §2

[14] = molecular target: T14, TNIK (Homo sapiens, UniProt Q9UKE5)
T14 construct: host or cells: E. coli host derived from BL21, T7 phage
T14 sequence (Q9UKE5 whole entry): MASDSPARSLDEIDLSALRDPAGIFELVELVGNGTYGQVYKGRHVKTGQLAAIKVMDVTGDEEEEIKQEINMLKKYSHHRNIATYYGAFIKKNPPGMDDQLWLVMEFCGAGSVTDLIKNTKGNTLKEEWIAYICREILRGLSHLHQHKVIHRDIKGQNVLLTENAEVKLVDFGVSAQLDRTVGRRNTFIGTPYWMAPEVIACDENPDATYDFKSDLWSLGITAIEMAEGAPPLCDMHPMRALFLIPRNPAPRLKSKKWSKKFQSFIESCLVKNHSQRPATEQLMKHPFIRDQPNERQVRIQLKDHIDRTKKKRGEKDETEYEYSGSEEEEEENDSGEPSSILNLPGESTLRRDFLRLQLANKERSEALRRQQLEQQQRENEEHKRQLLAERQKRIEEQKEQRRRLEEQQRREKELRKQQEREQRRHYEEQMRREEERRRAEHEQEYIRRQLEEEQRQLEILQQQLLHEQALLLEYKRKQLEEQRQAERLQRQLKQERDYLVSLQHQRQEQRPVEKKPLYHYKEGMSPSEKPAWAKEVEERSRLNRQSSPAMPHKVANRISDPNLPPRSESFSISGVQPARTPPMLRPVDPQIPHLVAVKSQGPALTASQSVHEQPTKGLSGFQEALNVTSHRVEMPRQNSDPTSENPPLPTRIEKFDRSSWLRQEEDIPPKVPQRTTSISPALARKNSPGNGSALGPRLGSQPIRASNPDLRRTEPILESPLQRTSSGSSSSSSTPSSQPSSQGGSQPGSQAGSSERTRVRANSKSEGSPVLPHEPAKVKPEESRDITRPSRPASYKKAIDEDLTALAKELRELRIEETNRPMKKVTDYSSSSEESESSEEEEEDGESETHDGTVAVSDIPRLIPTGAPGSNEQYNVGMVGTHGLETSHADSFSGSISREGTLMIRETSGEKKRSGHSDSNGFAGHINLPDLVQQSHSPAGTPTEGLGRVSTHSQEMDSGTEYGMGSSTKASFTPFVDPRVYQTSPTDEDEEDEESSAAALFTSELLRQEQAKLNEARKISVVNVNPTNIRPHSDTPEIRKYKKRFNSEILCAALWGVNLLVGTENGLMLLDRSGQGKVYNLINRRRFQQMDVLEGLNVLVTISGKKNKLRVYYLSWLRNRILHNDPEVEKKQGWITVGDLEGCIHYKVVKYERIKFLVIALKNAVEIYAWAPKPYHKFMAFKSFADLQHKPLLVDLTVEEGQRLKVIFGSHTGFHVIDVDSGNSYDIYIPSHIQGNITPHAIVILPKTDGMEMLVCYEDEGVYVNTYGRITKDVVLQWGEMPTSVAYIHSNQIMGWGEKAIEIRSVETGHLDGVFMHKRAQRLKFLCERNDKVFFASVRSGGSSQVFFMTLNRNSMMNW
Protocol: as §1, §2

[15] = molecular target: T15, PRKX (Homo sapiens, UniProt P51817)
T15 construct: host or cells: E. coli host derived from BL21, T7 phage display
Protocol: as §1, §2

[16] = molecular target: T16, LATS1 (Homo sapiens, UniProt O95835)
T16 construct: host or cells: T7 phage grown in E. coli host derived from BL21
Protocol: as §1, §2

[17] = molecular target: T17, PRKCQ (Homo sapiens, UniProt Q04759)
T17 construct: host or cells: T7 phage in E. coli host derived from BL21
Protocol: as §1, §2

[18] = molecular target: T18, MAPKAPK2 (Homo sapiens, UniProt P49137)
T18 construct: host or cells: E. coli host derived from the BL21 strain, infected with T7 phage
T18 sequence (P49137 whole entry): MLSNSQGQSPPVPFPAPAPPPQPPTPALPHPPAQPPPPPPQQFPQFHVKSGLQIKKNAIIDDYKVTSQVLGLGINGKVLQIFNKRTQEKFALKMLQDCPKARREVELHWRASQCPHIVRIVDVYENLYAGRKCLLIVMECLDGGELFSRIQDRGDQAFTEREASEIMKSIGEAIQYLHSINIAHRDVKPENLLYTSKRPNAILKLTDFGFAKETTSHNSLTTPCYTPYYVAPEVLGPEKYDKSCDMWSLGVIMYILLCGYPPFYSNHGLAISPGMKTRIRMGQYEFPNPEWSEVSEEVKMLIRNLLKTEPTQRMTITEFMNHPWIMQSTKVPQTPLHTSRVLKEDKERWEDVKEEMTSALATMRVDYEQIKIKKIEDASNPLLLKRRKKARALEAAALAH
Protocol: as §1, §2

[19] = molecular target: T19, PIM3 (Homo sapiens, UniProt Q86V86)
T19 construct: host or cells: T7 phage in E. coli host derived from BL21
Protocol: as §1, §2

[20] = molecular target: T20, RET(V804M) (Homo sapiens, UniProt P07949, V804M)
T20 construct: host or cells: E. coli host derived from BL21, T7 phage display
T20 sequence (P07949 29-1114 V804M): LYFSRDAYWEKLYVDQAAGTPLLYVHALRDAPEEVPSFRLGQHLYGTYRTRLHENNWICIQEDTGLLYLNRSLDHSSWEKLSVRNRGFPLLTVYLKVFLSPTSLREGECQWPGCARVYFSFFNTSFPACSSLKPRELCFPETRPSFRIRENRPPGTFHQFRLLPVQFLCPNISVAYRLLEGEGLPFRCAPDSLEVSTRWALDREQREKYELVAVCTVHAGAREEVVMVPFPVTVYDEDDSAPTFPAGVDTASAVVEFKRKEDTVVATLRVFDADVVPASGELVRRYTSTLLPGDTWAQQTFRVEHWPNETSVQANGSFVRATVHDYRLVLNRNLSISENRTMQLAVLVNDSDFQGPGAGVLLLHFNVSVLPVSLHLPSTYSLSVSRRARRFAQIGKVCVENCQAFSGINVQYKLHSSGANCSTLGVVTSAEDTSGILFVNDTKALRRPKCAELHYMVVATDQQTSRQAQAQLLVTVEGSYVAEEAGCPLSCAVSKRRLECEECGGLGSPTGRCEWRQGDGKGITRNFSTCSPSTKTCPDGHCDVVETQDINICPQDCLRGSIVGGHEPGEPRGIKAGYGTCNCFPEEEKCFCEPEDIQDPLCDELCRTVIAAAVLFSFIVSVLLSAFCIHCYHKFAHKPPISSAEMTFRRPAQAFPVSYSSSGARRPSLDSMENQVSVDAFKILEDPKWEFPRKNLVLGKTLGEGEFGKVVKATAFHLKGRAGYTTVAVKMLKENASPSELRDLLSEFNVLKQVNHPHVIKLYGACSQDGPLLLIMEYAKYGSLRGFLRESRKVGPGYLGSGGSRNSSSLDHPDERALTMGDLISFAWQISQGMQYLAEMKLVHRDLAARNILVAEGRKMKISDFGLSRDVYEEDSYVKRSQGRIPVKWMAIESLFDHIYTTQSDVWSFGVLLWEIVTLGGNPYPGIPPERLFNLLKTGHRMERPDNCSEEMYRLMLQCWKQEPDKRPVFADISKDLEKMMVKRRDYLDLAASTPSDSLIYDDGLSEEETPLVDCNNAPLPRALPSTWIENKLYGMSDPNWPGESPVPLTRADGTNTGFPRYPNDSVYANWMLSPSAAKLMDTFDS
Protocol: as §1, §2

[21] = molecular target: T21, MUSK (Homo sapiens, UniProt O15146)
T21 construct: host or cells: T7 phage grown in E. coli host derived from BL21
Protocol: as §1, §2

[22] = molecular target: T22, SRPK2 (Homo sapiens, UniProt P78362)
T22 construct: host or cells: T7 phage grown in E. coli (BL21-derived)
Protocol: as §1, §2

[23] = molecular target: T23, CLK4 (Homo sapiens, UniProt Q9HAZ1)
T23 construct: host or cells: T7 phage in E. coli host derived from BL21
Protocol: as §1, §2

[24] = molecular target: T24, RIPK1 (Homo sapiens, UniProt Q13546)
T24 construct: host or cells: E. coli host derived from BL21, T7 phage display
Protocol: as §1, §2

[25] = molecular target: T25, EPHB3 (Homo sapiens, UniProt P54753)
T25 construct: purchased Ambit Biosciences Corp; host or cells: T7 phage in E. coli host derived from BL21
Protocol: as §1, §2

[26] = molecular target: T26, GAK (Homo sapiens, UniProt O14976)
T26 construct: host or cells: T7 phage in E. coli host derived from BL21
Protocol: as §1, §2

[27] = molecular target: T27, AURKB (Homo sapiens, UniProt Q96GD4)
T27 construct: host or cells: E. coli host derived from BL21
Protocol: as §1, §2

[28] = molecular target: T28, BRAF (Homo sapiens, UniProt P15056)
T28 construct: host or cells: E. coli host derived from BL21
Protocol: as §1, §2

[29] = molecular target: T29, PIP5K2B (Homo sapiens, UniProt P78356)
T29 construct: host or cells: T7 phage in E. coli host derived from BL21
Protocol: as §1, §2

[30] = molecular target: T30, FER (Homo sapiens, UniProt P16591)
T30 construct: host or cells: T7 phage in E. coli host derived from BL21
Protocol: as §1, §2

[31] = molecular target: T31, MRCKA (Homo sapiens, UniProt Q5VT25)
T31 construct: host or cells: T7 phage grown in E. coli host derived from BL21
Protocol: as §1, §2

[32] = molecular target: T32, DCAMKL3 (Homo sapiens, UniProt Q9C098)
T32 construct: purchased Ambit Biosciences Corp (KinomeScan); host or cells: T7 phage in E. coli host derived from BL21
Protocol: as §1, §2

[33] = molecular target: T33, AKT2 (Homo sapiens, UniProt P31751)
T33 construct: host or cells: E. coli (BL21-derived), T7 phage lysate
Protocol: as §1, §2

Molecule `C#Cc1cccc(Nc2ncnc3cc(OC)c(OCCCN4CCOCC4)cc23)c1` [NRC-2694, N-(3-ethynylphenyl)-7-methoxy-6-[3-(4-morpholinyl)propoxy]-4-quinazolinamine] has a remaining binding at 10 µM [1] of 56%, a remaining binding at 10 µM [2] of 69% and a remaining binding at 10 µM [3] of 70%. For the same molecule, the remaining binding at 10 µM [4] was 40%, the remaining binding at 10 µM [5] was 86% and the remaining binding at 10 µM [6] was 75%. For the same molecule, the remaining binding at 10 µM [7] was 100%, the remaining binding at 10 µM [8] was 50% and the remaining binding at 10 µM [9] was 72%. For the same molecule, the remaining binding at 10 µM [10] was 94%, the remaining binding at 10 µM [11] was 83% and the remaining binding at 10 µM [12] was 0%. It also gave a remaining binding at 10 µM [13] of 93%, a remaining binding at 10 µM [14] of 17% and a remaining binding at 10 µM [15] of 100%. For the same molecule, the remaining binding at 10 µM [16] was 91%, the remaining binding at 10 µM [17] was 83% and the remaining binding at 10 µM [18] was 90%. The remaining binding at 10 µM [19] was 23%, the remaining binding at 10 µM [20] was 100% and the remaining binding at 10 µM [21] was 100%. It also gave a remaining binding at 10 µM [22] of 73%, a remaining binding at 10 µM [23] of 17% and a remaining binding at 10 µM [24] of 100%. It also gave a remaining binding at 10 µM [25] of 75%, a remaining binding at 10 µM [26] of 0.95% and a remaining binding at 10 µM [27] of 56%. It also gave a remaining binding at 10 µM [28] of 81%, a remaining binding at 10 µM [29] of 49% and a remaining binding at 10 µM [30] of 94%. The remaining binding at 10 µM [31] was 81%, the remaining binding at 10 µM [32] was 14% and the remaining binding at 10 µM [33] was 100%.
